Measurements reported in patent US4317914A, “Oxazolines” (Hoffmann-La Roche Inc., priority 1979, dated 1982).

What was measured:
[1] = test system: plasma glucose; assay: Activity on plasma glucose after repeated oral administration, fasted dog (2); type: in vivo; settings: 5 administrations
Description: (§1) The preparations containing the test compound were administered to rats and mice as a suspension in 5% gun arabic (10 ml/kg) through a stomach probe. Dogs received the preparations orally in gelatin capsules. The blank values were ascertained from animals which received only the vehicle or a blank capsule. The medication was administered daily at 9:00 a.m. and 3:00 p.m.
(§2) The plasma glucose (Tables 1 and 3) was determined according to the hexokinase method. The plasma was obtained from heparinized blood after decapitating the rats (1) or by puncturing the vena saphena (2), or there was used a filtrate, made protein-free with perchloric acid, of blood removed from the tip of the tail (3), (4), (5). The glucose in the urine was determined directly. In the case of (1), (2) and (4), the feed was withdrawn with the first of five medications.

[2] = test system: blood glucose; assay: Activity on blood glucose after repeated oral administration, diabetic rat (3), streptozotocin; type: in vivo; settings: 132 mg/kg p.o., 7 administrations
Description: as §1, §2
(§3) In the case of (3), female rats received 70 mg/kg of streptozotocin subcutaneously 2 weeks before the test. In the case of (3) and (5), quantitatively controlled feed supply existed.

[3] = test system: blood glucose; assay: Activity on blood glucose after repeated oral administration, obese-hyperglycemic mouse (4), feed withdrawn; type: in vivo; settings: 294 mg/kg p.o., 5 administrations
Description: as §1, §2

[4] = test system: blood glucose; assay: Activity on blood glucose after repeated oral administration, obese-hyperglycemic mouse (5), quantitatively controlled feed supply; type: in vivo; settings: 11 administrations
Description: as §1, §2, §3

[5] = Toxicity, 10 day test in mice; settings: mouse, in vivo
[6] = test system: plasma glucose; assay: Activity on plasma glucose after repeated oral administration, fasted rat (1); type: in vivo; settings: for Plasma glucose 3 hours after the last of 5 oral medications: 5 × p.o., *p < 0.05, ***p < 0.001; for Plasma glucose 3 hours after the last medication: ***p < 0.001
Description: as §1, §2

[7] = Toxicity, 10 day test in rats; settings: rat, in vivo
[8] = 88 mg/kg p.o., 5 administrations

Which results are given for CN(C)c1ccc(C2OC(C)(C)N=C2c2ccccc2)cc1 (centres unmarked) [A, 5-[p-(dimethylamino)phenyl]-2,2-dimethyl-4-phenyl-3-oxazoline]?
Plasma glucose 0 hours after the last medication ([1]; 29 mg/kg p.o., **p < 0.01): 82 % of blank values; Plasma glucose 1 hour after the last medication ([1]; 29 mg/kg p.o., *p < 0.05): 75 % of blank values; Plasma glucose 3 hours after the last medication ([1]; 29 mg/kg p.o., ***p < 0.001): 77 % of blank values; Plasma glucose 6 hours after the last medication ([1]; 29 mg/kg p.o., **p < 0.01): 74 % of blank values; Plasma glucose 24 hours after the last medication ([1]; 29 mg/kg p.o.): 84 % of blank values; Plasma glucose 0 hours after the last medication ([1]; 88 mg/kg p.o., **p < 0.01): 77 % of blank values; Plasma glucose 1 hour after the last medication ([1]; 88 mg/kg p.o.): 75 % of blank values; Plasma glucose 3 hours after the last medication ([1]; 88 mg/kg p.o., *p < 0.05): 78 % of blank values; Plasma glucose 6 hours after the last medication ([1]; 88 mg/kg p.o., *p < 0.05): 76 % of blank values; Plasma glucose 24 hours after the last medication ([1]; 88 mg/kg p.o., *p < 0.05): 74 % of blank values; Blood glucose 0 hours after the last medication ([2]; 0 h): 101 % of blank values; Blood glucose 1 hour after the last medication ([2]; 1 h): 101 % of blank values; Blood glucose 3 hours after the last medication ([2]; 3 h): 90 % of blank values; Blood glucose 6 hours after the last medication ([2]; 6 h, *p < 0.05): 86 % of blank values; Blood glucose 0 hours after the last medication ([3]; 0 h, *p < 0.05): 63 % of blank values; Blood glucose 1 hour after the last medication ([3]; 1 h): 74 % of blank values; Blood glucose 3 hours after the last medication ([3]; 3 h): 71 % of blank values; Blood glucose 6 hours after the last medication ([3]; 6 h, ***p < 0.001): 45 % of blank values; Blood glucose 0 hours after the last medication ([4]; 44 mg/kg p.o.): 83 % of blank values; Blood glucose 1 hour after the last medication ([4]; 44 mg/kg p.o.): 77 % of blank values; Blood glucose 3 hours after the last medication ([4]; 44 mg/kg p.o.): 84 % of blank values; Blood glucose 0 hours after the last medication ([4]; 132 mg/kg p.o., **p < 0.01): 66 % of blank values; Blood glucose 1 hour after the last medication ([4]; 132 mg/kg p.o., *p < 0.05): 61 % of blank values; Blood glucose 3 hours after the last medication ([4]; 132 mg/kg p.o., ***p < 0.001): 55 % of blank values; LD50 at 240 h [5]: 220 mg/kg; Plasma glucose 3 hours after the last of 5 oral medications ([6]; 300 μmol/kg): 78 % of the blank values; Plasma glucose 3 hours after the last of 5 oral medications ([6]; 1000 μmol/kg): 58 % of the blank values; Plasma glucose 0 hours after the last medication ([6]; 88 mg/kg p.o., 5 administrations, 0 h): 76 % of blank values; Plasma glucose 1 hour after the last medication [6, 8]: 76 % of blank values; Plasma glucose 3 hours after the last medication [6, 8]: 78 % of blank values; Plasma glucose 1 hour after the last medication ([6]; 294 mg/kg p.o., 5 administrations, **p < 0.01): 57 % of blank values; Plasma glucose 3 hours after the last medication ([6]; 294 mg/kg p.o., 5 administrations): 58 % of blank values; LD50 at 240 h [7]: 970 mg/kg

With CN(C=O)c1ccc(C2OC(C)(C)N=C2c2ccccc2)cc1 (centres unmarked) [C, 4'-(2,2-dimethyl-4-phenyl-3-oxazolin-5-yl)-N-methylformanilide] as the compound, how does the “Plasma glucose 3 hours after the last of 5 oral medications” value ([6]; 300 μmol/kg) read?
The value was 87 % of the blank values.

With CCN(CC)c1ccc(C2OC(C)(C)N=C2c2ccccc2)cc1 (centres unmarked) [B, 5-[p-(diethylamino)-phenyl]-2,2-dimethyl-4-phenyl-3-oxazoline] as the compound, how does the “Plasma glucose 3 hours after the last of 5 oral medications” value ([6]; 300 μmol/kg) read?
Its value is 91 % of the blank values.

What about the “Plasma glucose 3 hours after the last of 5 oral medications” value ([6]; 1000 μmol/kg) of the same compound?
Its value is 77 % of the blank values.

Which “Plasma glucose 3 hours after the last of 5 oral medications” value ([6]; 300 μmol/kg) does the source give for CNc1ccc(C2OC(C)(C)N=C2c2ccccc2)cc1 (centres unmarked) [D, 5-[p-(methylamino)phenyl]-2,2-dimethyl-4-phenyl-3-oxazoline] here?
The value was 86 % of the blank values.

What about the “Plasma glucose 3 hours after the last of 5 oral medications” value ([6]; 1000 μmol/kg) of the same compound?
Its value is 81 % of the blank values.
